The results in this text go back to PubChem BioAssay AID256 (DTP/NCI, 2004).

The assay has as its system CD2F1 mice, L1210 leukemia ip, survival T/C. Description: NCI In Vivo Anticancer Drug Screen. Data for tumor model L1210 Leukemia (intraperitoneal) in CD2F1 (CDF1) mice. Particulars: higher = longer survival. In short, it runs like this:
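In this screen, transplantable tumors were grown in mice given either the compound or its vehicle. Results were expressed as the treated measurement relative to the control measurement.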

Setting [1] is: endpoint: mean survival time, dose: 100.0 mg/kg/injection, schedule: Q04DX002 (ip), vehicle: saline with Tween-80.
[2] abbreviates: endpoint: mean survival time, dose: 200.0 mg/kg/injection, schedule: Q04DX002 (ip), vehicle: saline with Tween-80.
Where [3] appears, read: endpoint: mean survival time, dose: 400.0 mg/kg/injection, schedule: Q04DX002 (ip), vehicle: saline with Tween-80.
Setting [4] is: endpoint: mean survival time, dose: 100.0 mg/kg/injection, schedule: Q01DX009 (ip), vehicle: saline with Tween-80.
Where [5] appears, read: endpoint: mean survival time, dose: 200.0 mg/kg/injection, schedule: Q01DX009 (ip), vehicle: saline with Tween-80.
The mark [6] stands for this setting: endpoint: mean survival time, dose: 400.0 mg/kg/injection, schedule: Q01DX009 (ip), vehicle: saline with Tween-80.
Where [7] appears, read: endpoint: mean survival time, dose: 100.0 mg/kg/injection, schedule: Q04DX003 (ip), vehicle: saline with Tween-80.
[8] abbreviates: endpoint: mean survival time, dose: 200.0 mg/kg/injection, schedule: Q04DX003 (ip), vehicle: saline with Tween-80.
Where [9] appears, read: endpoint: mean survival time, dose: 400.0 mg/kg/injection, schedule: Q04DX003 (ip), vehicle: saline with Tween-80.

Toxic doses and inconclusive results are not listed.

Take `CC(C)CC(N)C(=O)NCCCCCCCCCCNC(=O)C(N)CC(C)C` (centres undefined): the T/C was 100 % of control (endpoint: mean survival time, dose: 6.25 mg/kg/injection, schedule: Q01DX010 (ip), vehicle: saline); 113 % of control (endpoint: mean survival time, dose: 12.5 mg/kg/injection, schedule: Q01DX010 (ip), vehicle: saline); 97 % of control (endpoint: mean survival time, dose: 25.0 mg/kg/injection, schedule: Q01DX010 (ip), vehicle: saline); 91 % of control (endpoint: mean survival time, dose: 50.0 mg/kg/injection, schedule: Q01DX010 (ip), vehicle: saline).
With `c1ccc(N/N=C2/CSCc3ccccc32)cc1`, the T/C by setting is: (endpoint: mean survival time, dose: 100.0 mg/kg/injection, schedule: Q01DX009 (ip), vehicle: Klucel (hydroxypropylcellulose) (HPC)) 98 % of control; (endpoint: mean survival time, dose: 200.0 mg/kg/injection, schedule: Q01DX009 (ip), vehicle: Klucel (hydroxypropylcellulose) (HPC)) 93 % of control; (endpoint: mean survival time, dose: 400.0 mg/kg/injection, schedule: Q01DX009 (ip), vehicle: Klucel (hydroxypropylcellulose) (HPC)) 93 % of control.
Turning to `CCCCCCCCCC1=NC(C)(C)CN1c1ccccc1`, the T/C was 98 % of control (endpoint: mean survival time, dose: 5.0 mg/kg/injection, schedule: Q01DX009 (ip), vehicle: saline with Tween-80); 102 % of control (endpoint: mean survival time, dose: 10.0 mg/kg/injection, schedule: Q01DX009 (ip), vehicle: saline with Tween-80); 106 % of control (endpoint: mean survival time, dose: 20.0 mg/kg/injection, schedule: Q01DX009 (ip), vehicle: saline with Tween-80).
For the compound `N#Cc1ccccc1C#N`, for the setting “endpoint: mean survival time, dose: 25.0 mg/kg/injection, schedule: Q04DX003 (ip), vehicle: saline with Tween-80”, the T/C was 97 % of control.
Consider `COc1ccn(C2OCCC(N=[N+]=[N-])C2O)c(=O)n1` (centres undefined), for which the T/C is, setting by setting: (endpoint: median survival time, dose: 12.5 mg/kg/injection, schedule: Q01DX005 (ip), vehicle: alkali diluted with saline) 109 % of control; (endpoint: median survival time, dose: 25.0 mg/kg/injection, schedule: Q01DX005 (ip), vehicle: alkali diluted with saline) 102 % of control; (endpoint: median survival time, dose: 50.0 mg/kg/injection, schedule: Q01DX005 (ip), vehicle: alkali diluted with saline) 108 % of control; (endpoint: median survival time, dose: 100.0 mg/kg/injection, schedule: Q01DX005 (ip), vehicle: alkali diluted with saline) 109 % of control; (endpoint: median survival time, dose: 200.0 mg/kg/injection, schedule: Q01DX005 (ip), vehicle: alkali diluted with saline) 98 % of control.
Take `CNc1nc(N(C)C)nc(N(C)C)n1`: the T/C was 97 % of control (endpoint: mean survival time, dose: 6.25 mg/kg/injection, schedule: Q01DX009 (ip), vehicle: saline); 107 % of control (endpoint: mean survival time, dose: 6.25 mg/kg/injection, schedule: Q01DX009 (ip), vehicle: water); 97 % of control (endpoint: mean survival time, dose: 12.5 mg/kg/injection, schedule: Q01DX009 (ip), vehicle: saline); 104 % of control (endpoint: mean survival time, dose: 12.5 mg/kg/injection, schedule: Q01DX009 (ip), vehicle: water); 100 % of control (endpoint: mean survival time, dose: 25.0 mg/kg/injection, schedule: Q01DX009 (ip), vehicle: saline); 104 % of control (endpoint: mean survival time, dose: 25.0 mg/kg/injection, schedule: Q01DX009 (ip), vehicle: water). In addition, the T/C is 101 % of control (endpoint: mean survival time, dose: 50.0 mg/kg/injection, schedule: Q01DX009 (ip), vehicle: saline); 110 % of control (endpoint: mean survival time, dose: 50.0 mg/kg/injection, schedule: Q01DX009 (ip), vehicle: water); 111 % of control (endpoint: mean survival time, dose: 100.0 mg/kg/injection, schedule: Q01DX009 (ip), vehicle: saline); 119 % of control (endpoint: mean survival time, dose: 100.0 mg/kg/injection, schedule: Q01DX009 (ip), vehicle: water).
As for `O=CNc1ccccc1OCc1ccccc1`, the T/C is, setting by setting: (endpoint: mean survival time, dose: 100.0 mg/kg/injection, schedule: Q01DX001 (ip), vehicle: saline) 100 % of control; (endpoint: mean survival time, dose: 200.0 mg/kg/injection, schedule: Q01DX001 (ip), vehicle: saline) 97 % of control; (endpoint: mean survival time, dose: 400.0 mg/kg/injection, schedule: Q01DX001 (ip), vehicle: saline) 103 % of control.
Regarding `O=C(O)c1nc2ccccc2c(=O)[nH]1`, the T/C runs as follows: (endpoint: mean survival time, dose: 50.0 mg/kg/injection, schedule: Q04DX002 (ip), vehicle: saline with Tween-80) 93 % of control; (endpoint: mean survival time, dose: 100.0 mg/kg/injection, schedule: Q01DX001 (ip), vehicle: saline with Tween-80) 102 % of control; under setting [1], 93 % of control; (endpoint: mean survival time, dose: 200.0 mg/kg/injection, schedule: Q01DX001 (ip), vehicle: saline with Tween-80) 92 % of control; under setting [2], 93 % of control.
On to `N#CC(c1cccc([N+](=O)[O-])c1)C(CC(=O)c1ccccc1)c1ccccc1` (centres undefined), for which the T/C is 95 % of control under setting [1], 95 % of control under setting [2] and 102 % of control under setting [3].
As to `NC(=O)C(CSCc1ccccc1)NC(=O)OCc1ccccc1` (centres undefined), the T/C is, setting by setting: under setting [4], 91 % of control; under setting [5], 88 % of control; under setting [6], 91 % of control.
As to `O=P(NCCCO)(OCc1ccccc1)N(CCCl)CCCl` (centres undefined), the T/C by setting is: (endpoint: mean survival time, dose: 15.63 mg/kg/injection, schedule: Q01DX001 (ip), vehicle: DMSO) 101 % of control; (endpoint: mean survival time, dose: 31.25 mg/kg/injection, schedule: Q01DX001 (ip), vehicle: DMSO) 98 % of control; (endpoint: mean survival time, dose: 62.5 mg/kg/injection, schedule: Q01DX001 (ip), vehicle: DMSO) 101 % of control; (endpoint: mean survival time, dose: 125.0 mg/kg/injection, schedule: Q01DX001 (ip), vehicle: DMSO) 104 % of control; (endpoint: mean survival time, dose: 250.0 mg/kg/injection, schedule: Q01DX001 (ip), vehicle: DMSO) 116 % of control; (endpoint: mean survival time, dose: 1000.0 mg/kg/injection, schedule: Q01DX001 (ip), vehicle: DMSO) 173 % of control. For the setting “endpoint: mean survival time, dose: 1000.0 mg/kg/injection, schedule: Q01DX001 (ip), vehicle: other”, the T/C was 178 % of control.
Take `CSc1ccc(NC(=O)CCl)cc1`: under setting [7], the T/C is 91 % of control.
As for `N#Cc1ncn(C2OC(CO)C(O)C2O)c1N` (centres undefined), the T/C under setting [1] is 102 % of control, the T/C under setting [2] was 105 % of control and the T/C under setting [3] is 109 % of control.
`CC(=O)NCCN=Cc1ccccc1`: the T/C under setting [4] is 97 % of control; the T/C under setting [7] was 95 % of control; the T/C under setting [5] was 95 % of control; the T/C under setting [8] was 95 % of control; the T/C under setting [6] is 97 % of control; the T/C under setting [9] is 97 % of control.
Consider `CC1CCCC2C(=O)OC(=O)C12` (centres undefined), for which the T/C is 92 % of control (endpoint: mean survival time, dose: 100.0 mg/kg/injection, schedule: Q04DX003 (ip), vehicle: Klucel (hydroxypropylcellulose) (HPC)) and 98 % of control (endpoint: mean survival time, dose: 200.0 mg/kg/injection, schedule: Q04DX003 (ip), vehicle: Klucel (hydroxypropylcellulose) (HPC)).
Take `CC1=C2C(=CC(C)(CO)C2O)C(O)C(C)(O)C12CC2` (centres undefined): the T/C is 94 % of control (endpoint: mean survival time, dose: 1.56 mg/kg/injection, schedule: Q01DX005 (ip), vehicle: water); 87 % of control (endpoint: mean survival time, dose: 3.13 mg/kg/injection, schedule: Q01DX005 (ip), vehicle: water); 89 % of control (endpoint: mean survival time, dose: 6.25 mg/kg/injection, schedule: Q01DX005 (ip), vehicle: water); 94 % of control (endpoint: mean survival time, dose: 12.5 mg/kg/injection, schedule: Q01DX005 (ip), vehicle: water); 100 % of control (endpoint: mean survival time, dose: 25.0 mg/kg/injection, schedule: Q01DX005 (ip), vehicle: water).
`C(=C\c1nccc2c1[nH]c1ccccc12)/c1ccccc1`: the T/C is 105 % of control under setting [7], 100 % of control under setting [8] and 105 % of control under setting [9].
With `Oc1cccc2ccccc12`, the T/C is 95 % of control (endpoint: median survival time, dose: 50.0 mg/kg/injection, schedule: Q01DX005 (ip), vehicle: water); 95 % of control (endpoint: median survival time, dose: 100.0 mg/kg/injection, schedule: Q01DX005 (ip), vehicle: water); 101 % of control (endpoint: median survival time, dose: 200.0 mg/kg/injection, schedule: Q01DX005 (ip), vehicle: water); 93 % of control (endpoint: median survival time, dose: 400.0 mg/kg/injection, schedule: Q01DX005 (ip), vehicle: water).
On to `CC(C)C1NC(=O)C2CCCN2C1=O` (centres undefined), for which the T/C was 98 % of control (endpoint: mean survival time, dose: 100.0 mg/kg/injection, schedule: Q01DX009 (ip), vehicle: saline sonified); 93 % of control (endpoint: mean survival time, dose: 200.0 mg/kg/injection, schedule: Q01DX009 (ip), vehicle: saline sonified); 96 % of control (endpoint: mean survival time, dose: 400.0 mg/kg/injection, schedule: Q01DX009 (ip), vehicle: saline sonified).
